Reference: US20150025120A1, “PYRAZOLE-ALCOHOL COMPOUNDS AND PHARMACEUTICAL USE THEREOF” (JAPAN TOBACCO INC., priority 2013, published 2015)

Assays:
tissue PDH activity = assay: Ex vivo PDH activation assay (liver and epididymal adipose tissue after oral administration); assay type: in vivo, Sprague-Dawley rats; details: 3 mg/kg, rat, mean ± standard deviation
Method: The action of test compound on tissue PDH activity was evaluated. NADH production was detected via p-iodonitrotetrazolium violet (INT)-coupled system to measure PDH activity.
Normal male Sprague-Dawley rats were randomly allocated to the vehicle group and the test compound groups. The vehicle (0.5% aqueous methylcellulose solution, 5 mL/kg) or the test compound was orally administered to the rats. At 5 or 20 hr after administration, the rats were anesthetized with an intraperitoneal injection of sodium pentobarbital (60 mg/kg), and liver slices and epididymal adipose tissues were collected.
To the liver slices were rapidly added 9 volumes of ice-cold homogenization buffer (0.25 mol/L sucrose, 5 mmol/L tris(hydroxymethyl)aminomethane hydrochloride (pH 7.5), 2 mmol/L EDTA), and the mixtures were homogenized using a Polytron homogenizer. The homogenates were centrifuged at 600×g, 4° C. for 10 min to obtain the supernatant. The supernatants (1 mL) were centrifuged at 16,000×g, 4° C. for 10 min to collect the precipitates. The precipitates were washed by resuspension in the homogenization buffer (1 mL) and centrifuged in the same manner. The precipitates were frozen with liquid nitrogen and stored at −80° C. as the liver mitochondrial fraction.
To the adipose tissues were rapidly added 3 volumes of an ice-cold homogenization buffer, and the mixtures were homogenized using a Polytron homogenizer. The homogenates were centrifuged at 600×g, 4° C. for 10 min to obtain the supernatant. The supernatants were centrifuged at 16,000×g, 4° C. for 10 min to collect the precipitates. The precipitates were washed by resuspension in the homogenization buffer (1 mL) and centrifuged in the same manner. The precipitates were frozen with liquid nitrogen and stored at −80° C. as the adipose tissue mitochondrial fraction.
The mitochondrial fractions were thawed and suspended with the sample buffer (0.25 mol/L sucrose, 20 mmol/L tris(hydroxymethyl)aminomethane hydrochloride (pH 7.5), 50 mmol/L potassium chloride, and 1 mL/L 4-(1,1,3,3-tetramethylbutyl)phenyl-polyethylene glycol (Triton X-100)). Active PDH activity (PDHa activity) and total PDH activity (PDHt activity) were measured to evaluate the PDH activity. For the measurement of the PDHt activity, equal amounts of the mitochondrial suspension and the activation buffer (0.25 mol/L sucrose, 20 mmol/L tris(hydroxymethyl)aminomethane hydrochloride (pH 7.5), 50 mmol/L potassium chloride, 1 mL/L Triton X-100, 4 mmol/L calcium chloride, 40 mmol/L magnesium chloride, 10 mmol/L sodium dichloroacetate) were mixed, and the mixtures were incubated at 37° C. for 10 min. Forty microliters of the mitochondrial suspensions diluted with a sample buffer were added to a 96-well microplate for activity measurement and blank measurement. Then 180 μL of the reaction mixture (0.056 mmol/L potassium phosphate buffer (pH 7.5), 5.6 mmol/L DL-carnitine, 2.8 mmol/L NAD, 0.22 mmol/L thiamin pyrophosphate, 0.11 mmol/L Coenzyme A, 1.1 mL/L Triton X-100, 1.1 mmol/L magnesium chloride, 1.1 g/L bovine serum albumin, 0.67 mmol/L INT, 7.2 μmol/L phenazine methosulfate, 28 mmol/L sodium oxamate) was added to each well, and then 20 μL of 50 mmol/L sodium pyruvate for activity measurement or water for blank measurement were added. The mixtures were incubated at room temperature under shading. The absorbances at 500-750 nm, which were attributable to reduction of INT, the final electron acceptor, were measured using a microplate reader over time and the changes in the absorbance were calculated. The PDH activity was calculated by subtraction of the change in absorbance of the blank well from that of the activity measurement well. The percentage of the PDHa activity to the PDHt activity was calculated and taken as an index of the PDH activation.

[1] = molecular target: T1, hERG current (hERG-transfected HEK293 cells) (Homo sapiens, UniProt Q12809); assay: hERG whole cell patch clamp test; assay type: cell-based
T1 construct: host or cells: HEK293
T1 sequence (Q12809 whole entry): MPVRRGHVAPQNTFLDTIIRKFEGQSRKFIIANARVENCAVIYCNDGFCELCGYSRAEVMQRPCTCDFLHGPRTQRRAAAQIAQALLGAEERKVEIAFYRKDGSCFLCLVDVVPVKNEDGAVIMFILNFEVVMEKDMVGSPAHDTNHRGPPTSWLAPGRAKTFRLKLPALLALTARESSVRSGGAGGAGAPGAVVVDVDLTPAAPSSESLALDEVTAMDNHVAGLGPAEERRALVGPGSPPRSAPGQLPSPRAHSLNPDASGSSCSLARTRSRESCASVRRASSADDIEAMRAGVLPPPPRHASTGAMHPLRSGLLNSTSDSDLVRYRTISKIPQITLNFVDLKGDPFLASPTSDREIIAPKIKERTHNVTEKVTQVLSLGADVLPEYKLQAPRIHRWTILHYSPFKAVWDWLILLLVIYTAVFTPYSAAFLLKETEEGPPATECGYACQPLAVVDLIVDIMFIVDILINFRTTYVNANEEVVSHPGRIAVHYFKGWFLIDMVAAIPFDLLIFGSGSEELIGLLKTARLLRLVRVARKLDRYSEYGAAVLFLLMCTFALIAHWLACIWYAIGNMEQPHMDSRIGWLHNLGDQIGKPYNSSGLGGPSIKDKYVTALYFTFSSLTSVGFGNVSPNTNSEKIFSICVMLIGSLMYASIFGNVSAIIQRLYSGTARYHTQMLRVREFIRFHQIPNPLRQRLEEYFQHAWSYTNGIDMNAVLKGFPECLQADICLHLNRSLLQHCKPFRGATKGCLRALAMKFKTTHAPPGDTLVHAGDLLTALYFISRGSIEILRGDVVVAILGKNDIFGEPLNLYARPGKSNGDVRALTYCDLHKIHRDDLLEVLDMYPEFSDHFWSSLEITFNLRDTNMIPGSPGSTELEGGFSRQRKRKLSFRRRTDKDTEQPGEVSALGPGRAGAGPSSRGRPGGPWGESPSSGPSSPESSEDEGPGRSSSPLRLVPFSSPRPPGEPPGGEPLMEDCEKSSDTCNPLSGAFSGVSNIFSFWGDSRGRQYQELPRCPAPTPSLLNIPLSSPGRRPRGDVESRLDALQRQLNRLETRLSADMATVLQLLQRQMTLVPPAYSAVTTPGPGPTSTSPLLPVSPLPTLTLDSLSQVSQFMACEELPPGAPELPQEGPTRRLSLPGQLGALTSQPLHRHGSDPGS
Method: Using human ether-a-go-go related gene (hERG)-transfected HEK293 cells (Cytomyx Limited), an influence on hERG current was examined according to the whole cell patch clamp technique. The hERG-transfected HEK293 cells were passaged using a CO2 incubator (BNA-111, TABAI ESPEC CORP.) under the set conditions of 37° C., 5% CO2, saturated humidity. Culture containers used were Collagen Type I Coated 75 cm^2 flask (4123-010, AGC TECHNO GLASS CO., Ltd.) and Collagen Type I Coated 35 mm culture dish (4000-010, AGC TECHNO GLASS CO., Ltd.). The culture medium used was E-MEM (Eagle Minimum Essential Medium (Earle's Salts, Nikken biomedical laboratory) added with 10% FCS (Fetal calf serum, BioWest, L.L.C.) and 1% MEM Non-Essential Amino Acids Solution (NEAA, Invitrogen Corporation). Geneticin for the selection of hERG gene expressing cells was added thereto to a concentration of 400 μg/mL. As the cells for the measurement, 3×10^4 hERG-transfected HEK293 cells were plated on a 35 mm culture dish 4 to 7 days before measurement of the hERG current. The culture dish produced for the measurement contained the above-mentioned culture medium without geneticin (Invitrogen Corporation).
The highest evaluation concentration of each compound was determined from the highest concentration at which precipitation was not found in the standard extracellular fluid (NaCl: 140 mmol/L, KCl: 2.5 mmol/L, MgCl2: 2 mmol/L, CaCl2: 2 mmol/L, HEPES: 10 mmol/L, glucose: 10 mmol/L (adjusted to pH 7.4 with Tris-base)). As the application method, each solution to be applied was ejected from a Y-tube having a tip diameter of about 0.25 mm, which was adjacent (about 2 mm) to the cells, and applied to the cells. The ejection rate was about 0.4 mL/min.
The experiment was performed at room temperature under a phase contrast microscope. The 35 mm culture dish plated with the cells was set on a measurement apparatus, and the standard extracellular fluid was continuously applied to the cells from the Y-tube. A glass electrode for the measurement was filled with an intracellular fluid (Potassium Gluconate: 130 mmol/L, KCl: 20 mmol/L, MgCl2: 1 mmol/L, ATP-Mg: 5 mmol/L, EGTA: 3.5 mmol/L, HEPES: 10 mmol/L (adjusted to pH 7.2 with Tris-base)). A conventional whole cell patch clamp method was applied to the cells, and the maintenance electric potential was set to −80 mV. Under a fixed electric potential, the whole cell current was amplified by an amplifier for patch clamp (AXOPATCH-200B, Axon Instruments, Inc.), and the data was loaded into a computer (IMC-P642400, Intermedical Co., Ltd.) using a data acquisition analysis software (pCLAMP 9.2, Axon Instruments, Inc.).
The measurement of the hERG current was performed in the following two steps. In both cases, the hERG current was initiated by giving a command potential (maintenance electric potential −80 mV, prepulse+20 mV, 1.5 sec, test-pulse −50 mV, 1.5 sec).
Step (1): The above-mentioned command potential was given at 0.1 Hz for 2 min.
Step (2): The above-mentioned command potential was subjected to P/3 subtraction of pCLAMP 9.2 to remove leak current. This was repeated three times and an average thereof was taken as hERG current.
Subsequent to step (1), Step (2) was performed (about 3 min), and the maximum tail current obtained by applying a test-pulse to the hERG current obtained by the method of step (2) was taken as hERG current value. Hereafter, the operations of (1) and (2) were alternately repeated until completion of the experiment and the hERG current value was measured.
Stable hERG current value was recorded three times (about 10 min), and the standard extracellular fluid was instantaneously exchanged with each application fluid. The hERG current value was measured three times (about 10 min) in the same manner during perfusion of the application fluid, and the current value obtained by the 3rd measurement was taken as hERG current value after perfusion of the application fluid. […]

[2] = adipose tissue, 5 hr after oral administration
[3] = adipose tissue, 20 hr after oral administration
[4] = liver, 5 hr after oral administration
[5] = liver, 20 hr after oral administration

| Compound | PDHa activity (% PDHt activity) (tissue PDH activity; [2]) | PDHa activity (% PDHt activity) (tissue PDH activity; [3]) | PDHa activity (% PDHt activity) (tissue PDH activity; [4]) | PDHa activity (% PDHt activity) (tissue PDH activity; [5]) | hERG inhibition rate (%) ([1]; concentration 3 μmol/L) | hERG inhibition rate (%) ([1]; concentration 30 μmol/L) |
| --- | --- | --- | --- | --- | --- | --- |
| CC(C)(O)COc1cc(-c2cnn(CCO)c2)c2c(c1)[C@@](O)(C(F)(F)F)c1ccccc1-2 [compound (C), (9R)-4-[1-(2-Hydroxyethyl)-1H-pyrazol-4-yl]-2-(2-hydroxy-2-methylpropoxy)-9-(trifluoromethyl)-9H-fluoren-9-ol] | 53 ± 4 | 28 ± 7 | 44 ± 5 | 13 ± 3 | 11.5 | 69.0 |
| CC(C)(C(N)=O)n1cc(-c2cc(F)cc3c2-c2ccccc2[C@]3(O)C(F)(F)F)cn1 [compound (D), 2-{4-[(9R)-2-Fluoro-9-hydroxy-9-(trifluoromethyl)-9H-fluoren-4-yl]-1H-pyrazol-1-yl}-2-methylpropanamide] | 43 ± 7 | 24 ± 3 | 41 ± 15 | 20 ± 1 | 9.4 | 67.5 |
